Data: PubChem BioAssay AID248 (DTP/NCI, 2004)
Values joined by “and” are separate entries in the source; they are usually repeats but may differ in a detail not shown here. Identical values can stand only once. Toxic doses and inconclusive results are not listed. Rule as the data show it: active = T/C of 150% or more; inactive = T/C below 125%.

Tested on: L1210 leukemia ip in BDF1 mice, survival T/C
Experiment: NCI In Vivo Anticancer Drug Screen. Data for tumor model L1210 Leukemia (intraperitoneal) in B6D2F1 (BDF1) mice
Settings: endpoint: mean survival time, higher = longer survival
Method in brief: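 Each compound was tested against a transplantable tumor grown in mice. The endpoint was survival, with treated animals benchmarked against vehicle controls as a simple ratio.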

[1] = dose: 100.0 mg/kg/injection, schedule: Q01DX009 (ip), vehicle: Klucel (hydroxypropylcellulose) (HPC)
[2] = dose: 200.0 mg/kg/injection, schedule: Q01DX009 (ip), vehicle: Klucel (hydroxypropylcellulose) (HPC)
[3] = dose: 400.0 mg/kg/injection, schedule: Q01DX009 (ip), vehicle: Klucel (hydroxypropylcellulose) (HPC)
[4] = dose: 100.0 mg/kg/injection, schedule: Q01DX001 (ip), vehicle: Klucel (hydroxypropylcellulose) (HPC)
[5] = dose: 200.0 mg/kg/injection, schedule: Q01DX001 (ip), vehicle: Klucel (hydroxypropylcellulose) (HPC)
[6] = dose: 400.0 mg/kg/injection, schedule: Q01DX001 (ip), vehicle: Klucel (hydroxypropylcellulose) (HPC)
[7] = dose: 100.0 mg/kg/injection, schedule: Q04DX003 (ip), vehicle: saline
[8] = dose: 400.0 mg/kg/injection, schedule: Q04DX003 (ip), vehicle: saline
[9] = dose: 50.0 mg/kg/injection, schedule: Q01DX001 (ip), vehicle: saline
[10] = dose: 100.0 mg/kg/injection, schedule: Q01DX001 (ip), vehicle: saline
[11] = dose: 200.0 mg/kg/injection, schedule: Q01DX001 (ip), vehicle: saline
[12] = dose: 400.0 mg/kg/injection, schedule: Q01DX001 (ip), vehicle: saline
[13] = dose: 50.0 mg/kg/injection, schedule: Q01DX001 (ip), vehicle: carboxymethylcellulose (CMC)
[14] = dose: 100.0 mg/kg/injection, schedule: Q01DX001 (ip), vehicle: carboxymethylcellulose (CMC)
[15] = dose: 200.0 mg/kg/injection, schedule: Q01DX001 (ip), vehicle: carboxymethylcellulose (CMC)
[16] = dose: 400.0 mg/kg/injection, schedule: Q01DX001 (ip), vehicle: carboxymethylcellulose (CMC)

Measured: T/C

CC[C@@]1(O)C(=O)OCc2c1cc1n(c2=O)Cc2cc3cc(O)ccc3nc2-1
inactive: dose: 2.0 mg/kg/injection, schedule: Q01DX001 (ip), vehicle: saline 111 % of control | dose: 2.0 mg/kg/injection, schedule: Q01DX009 (oral), vehicle: saline 105 % of control and 108 % of control | dose: 3.0 mg/kg/injection, schedule: Q01DX009 (oral), vehicle: saline 114 % of control and 115 % of control | dose: 7.0 mg/kg/injection, schedule: Q01DX009 (oral), vehicle: saline 101 % of control and 120 % of control | dose: 10.0 mg/kg/injection, schedule: Q01DX009 (oral), vehicle: saline 121 % of control | dose: 15.0 mg/kg/injection, schedule: Q01DX009 (oral), vehicle: saline 115 % of control | dose: 16.0 mg/kg/injection, schedule: Q01DX001 (ip), vehicle: saline 88 % of control | dose: 12.0 micrograms/kg/injection, schedule: Q01DX015 (ip), vehicle: saline 113 % of control | dose: 19.0 micrograms/kg/injection, schedule: Q01DX015 (ip), vehicle: saline 111 % of control | dose: 29.0 micrograms/kg/injection, schedule: Q01DX015 (ip), vehicle: saline 118 % of control | dose: 44.0 micrograms/kg/injection, schedule: Q01DX015 (ip), vehicle: saline 120 % of control
active: dose: 0.15 mg/kg/injection, schedule: Q01DX015 (ip), vehicle: saline 151 % of control | dose: 0.22 mg/kg/injection, schedule: Q01DX015 (ip), vehicle: saline 157 % of control | dose: 0.34 mg/kg/injection, schedule: Q01DX015 (ip), vehicle: saline 165 % of control | dose: 0.51 mg/kg/injection, schedule: Q01DX015 (ip), vehicle: saline 233 % of control | dose: 0.77 mg/kg/injection, schedule: Q01DX015 (ip), vehicle: saline 157 % of control | dose: 1.0 mg/kg/injection, schedule: Q01DX009 (ip), vehicle: saline 185 % of control | dose: 1.16 mg/kg/injection, schedule: Q01DX015 (ip), vehicle: saline 161 % of control | dose: 1.75 mg/kg/injection, schedule: Q01DX015 (ip), vehicle: saline 177 % of control | dose: 2.0 mg/kg/injection, schedule: Q01DX009 (ip), vehicle: saline 229 % of control | dose: 4.0 mg/kg/injection, schedule: Q01DX001 (ip), vehicle: saline 164 % of control | dose: 8.0 mg/kg/injection, schedule: Q01DX001 (ip), vehicle: saline 242 % of control | dose: 100.0 micrograms/kg/injection, schedule: Q01DX015 (ip), vehicle: saline 150 % of control

CCOC(=O)c1ccc(NC(=O)N(CCCl)N=O)cc1
active: dose: 9.0 mg/kg/injection, schedule: Q01DX001 (ip), vehicle: carboxymethylcellulose (CMC) 215 % of control | dose: 18.7 mg/kg/injection, schedule: Q01DX001 (ip), vehicle: carboxymethylcellulose (CMC) 157 % of control

O=S(=O)(O)CCN1CCN(CCS(=O)(=O)O)CC1
inactive: [1] 95 % of control | [2] 95 % of control | [3] 101 % of control

CCCCNC(=O)Nc1ccccc1Cl
inactive: [4] 96 % of control | [5] 99 % of control | [6] 102 % of control

COC1OC(CNC(=O)N(C)N=O)C(O)C(O)C1O (stereo not given)
inactive: [7] 115 % of control | dose: 115.0 mg/kg/injection, schedule: Q04DX003 (ip), vehicle: saline 116 % of control | dose: 132.0 mg/kg/injection, schedule: Q04DX003 (ip), vehicle: saline 120 % of control
active: dose: 200.0 mg/kg/injection, schedule: Q01DX009 (ip), vehicle: saline 150 % of control and 170 % of control | dose: 300.0 mg/kg/injection, schedule: Q01DX009 (ip), vehicle: saline 173 % of control | dose: 400.0 mg/kg/injection, schedule: Q01DX009 (ip), vehicle: saline 166 % of control | [8] 150 % of control and 160 % of control

COc1ccc2ccc3ccc(OC)c(OC(C)=O)c3c2c1
inactive: dose: 100.0 mg/kg/injection, schedule: Q01DX001 (ip), vehicle: steriod suspending solution 94 % of control | dose: 200.0 mg/kg/injection, schedule: Q01DX001 (ip), vehicle: steriod suspending solution 105 % of control | dose: 400.0 mg/kg/injection, schedule: Q01DX001 (ip), vehicle: steriod suspending solution 108 % of control

C(/CCC/C=N/Nc1ccccc1)=N\Nc1ccccc1
inactive: [9] 103 % of control | [10] 100 % of control | [11] 109 % of control | [12] 100 % of control

O=C1OC(c2ccccc2)=N/C1=C\c1ccccc1
inactive: [13] 93 % of control | [14] 95 % of control | dose: 100.0 mg/kg/injection, schedule: Q04DX002 (ip), vehicle: gum acacia 91 % of control | [15] 101 % of control | dose: 200.0 mg/kg/injection, schedule: Q04DX002 (ip), vehicle: gum acacia 109 % of control | [16] 90 % of control | dose: 400.0 mg/kg/injection, schedule: Q04DX002 (ip), vehicle: gum acacia 98 % of control

CCCSc1ncnc2nc[nH]c12
inactive: dose: 31.3 mg/kg/injection, schedule: Q01DX009 (ip), vehicle: saline 93 % of control and 100 % of control | dose: 62.5 mg/kg/injection, schedule: Q01DX009 (ip), vehicle: saline 97 % of control and 121 % of control | dose: 125.0 mg/kg/injection, schedule: Q01DX009 (ip), vehicle: saline 121 % of control | dose: 250.0 mg/kg/injection, schedule: Q01DX009 (ip), vehicle: saline 100 % of control

Cn1c(=O)c2[nH]c(C3CCC3)nc2n(C)c1=O
inactive: [9] 110 % of control | [10] 113 % of control | [11] 101 % of control | [12] 107 % of control

C=CCNC(=S)Nc1c(C)cc(C)cc1C
inactive: dose: 12.5 mg/kg/injection, schedule: Q01DX009 (ip), vehicle: Klucel (hydroxypropylcellulose) (HPC) 102 % of control | dose: 25.0 mg/kg/injection, schedule: Q01DX009 (ip), vehicle: Klucel (hydroxypropylcellulose) (HPC) 97 % of control | dose: 50.0 mg/kg/injection, schedule: Q01DX009 (ip), vehicle: Klucel (hydroxypropylcellulose) (HPC) 103 % of control

CCC(CC)c1ccc2ccccc2c1
inactive: [10] 100 % of control | [11] 98 % of control | [12] 101 % of control

CCC(=O)N1CCOCC1
inactive: [7] 102 % of control | dose: 200.0 mg/kg/injection, schedule: Q04DX003 (ip), vehicle: saline 105 % of control | [8] 98 % of control

O=C1NNC(=O)C2C3CCC(C3)C12 (stereo not given)
inactive: dose: 50.0 mg/kg/injection, schedule: Q01DX009 (ip), vehicle: saline 98 % of control

S=c1nc[nH]c2c1ncn2CCCc1ccccc1
inactive: [13] 106 % of control | [14] 98 % of control | [15] 98 % of control | [16] 95 % of control

NOCc1cc2c(cc1Cl)OCO2
inactive: [4] 94 % of control | [1] 94 % of control | dose: 100.0 mg/kg/injection, schedule: Q04DX003 (ip), vehicle: Klucel (hydroxypropylcellulose) (HPC) 90 % of control | [5] 88 % of control | [2] 92 % of control | dose: 200.0 mg/kg/injection, schedule: Q04DX003 (ip), vehicle: Klucel (hydroxypropylcellulose) (HPC) 96 % of control | [6] 100 % of control | [3] 86 % of control | dose: 400.0 mg/kg/injection, schedule: Q04DX003 (ip), vehicle: Klucel (hydroxypropylcellulose) (HPC) 96 % of control

CCOC(=O)c1ccc(NC(=O)CCl)cc1
inactive: dose: 25.0 mg/kg/injection, schedule: Q01DX015 (ip), vehicle: saline 98 % of control | [9] 106 % of control | dose: 50.0 mg/kg/injection, schedule: Q01DX015 (ip), vehicle: saline 100 % of control | [10] 104 % of control | dose: 100.0 mg/kg/injection, schedule: Q01DX015 (ip), vehicle: saline 98 % of control | [11] 101 % of control | [12] 97 % of control

CNN
inactive: dose: 20.0 mg/kg/injection, schedule: Q04DX003 (ip), vehicle: saline 101 % of control | dose: 25.0 mg/kg/injection, schedule: Q01DX009 (ip), vehicle: saline 103 % of control | dose: 40.0 mg/kg/injection, schedule: Q04DX003 (ip), vehicle: saline 121 % of control | dose: 80.0 mg/kg/injection, schedule: Q04DX003 (ip), vehicle: saline 111 % of control | [7] 96 % of control
